Results as given in ChEMBL document CHEMBL1201862, “PubChem BioAssay data set” (2004).
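These data come from cells grown in 96-well plates and exposed to compound for 48 hours at five concentrations. GI50 marks 50% less growth.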 Calls of active or inactive are those of the source. No stated cut-off is given here; in the data, active = GI50 up to about 1.1 µM and inactive = higher.

Experiments:
Experiment in all cases: NCI anticancer screen, dose series, 48 h
M14 = tested on: M14
MDA-N = tested on: MDA-N
MCF7 = tested on: MCF7
786-0 = tested on: 786-0
UACC-257 = tested on: UACC-257
SN12C = tested on: SN12C
SK-MEL-28 = tested on: SK-MEL-28
RPMI-8226 = tested on: RPMI-8226
PC-3 = tested on: PC-3
HCT-116 = tested on: HCT-116
SNB-75 = tested on: SNB-75
K562 = tested on: K562
HL-60 = tested on: HL-60
HOP-92 = tested on: HOP-92
SF-268 = tested on: SF-268
T47D = tested on: T47D
OVCAR-8 = tested on: OVCAR-8
OVCAR-5 = tested on: OVCAR-5
NCI-H522 = tested on: NCI-H522
HCT-15 = tested on: HCT-15

**Q.** With `O=Nc1c(-c2c(O)[nH]c3ccccc23)[nH]c2ccccc12` [INDIRUBIN-3-MONOXIME] as the compound, how does the GI50 (M14) read?
**A.** 5.61 µM (inactive)

**Q.** And the GI50 (MDA-N)?
**A.** 4.58 µM (inactive)

**Q.** What about the GI50 (MCF7) of the same compound?
**A.** 3.13 µM (inactive)

**Q.** What about the GI50 (786-0) of the same compound?
**A.** 7.57 µM (inactive)

**Q.** What about the GI50 (UACC-257) of the same compound?
**A.** 18.3 µM (inactive)

**Q.** What about the GI50 (SN12C) of the same compound?
**A.** 2.98 µM (inactive)

**Q.** What about the GI50 (SK-MEL-28) of the same compound?
**A.** 6.9 µM (inactive)

**Q.** What about the GI50 (RPMI-8226) of the same compound?
**A.** 3.95 µM (inactive)

**Q.** And the GI50 (PC-3)?
**A.** 3.72 µM (inactive)

**Q.** What about the GI50 (HCT-116) of the same compound?
**A.** 2.52 µM (inactive)

**Q.** And the GI50 (SNB-75)?
**A.** 3.88 µM (inactive)

**Q.** And the GI50 (K562)?
**A.** 2.67 µM (inactive)

**Q.** What about the GI50 (HL-60) of the same compound?
**A.** 2.72 µM (inactive)

**Q.** And the GI50 (HOP-92)?
**A.** 8.77 µM (inactive)

**Q.** And the GI50 (SF-268)?
**A.** 5.5 µM (inactive)

**Q.** And the GI50 (T47D)?
**A.** 4.3 µM (inactive)

**Q.** And the GI50 (OVCAR-8)?
**A.** 4.45 µM (inactive)

**Q.** What about the GI50 (OVCAR-5) of the same compound?
**A.** 7.26 µM (inactive)

**Q.** What about the GI50 (NCI-H522) of the same compound?
**A.** 3.48 µM (inactive)

**Q.** What about the GI50 (HCT-15) of the same compound?
**A.** 2.48 µM

**Q.** For `COc1cccc2c1C(=O)c1c(O)c3c(c(O)c1C2=O)C[C@@](O)(C(C)=O)C[C@@H]3OC1CC(N(C)C)C(O)C(C)O1` (stereo not given in full), which GI50 (M14) is on record?
**A.** 0.00439 µM (active)

**Q.** What about the GI50 (MDA-N) of the same compound?
**A.** 0.000226 µM (active)

**Q.** And the GI50 (MCF7)?
**A.** 0.01 µM (active)

**Q.** What about the GI50 (786-0) of the same compound?
**A.** 0.0562 µM (active)

**Q.** What about the GI50 (UACC-257) of the same compound?
**A.** 0.00555 µM (active)

**Q.** And the GI50 (SN12C)?
**A.** 0.00357 µM (active)

**Q.** What about the GI50 (SK-MEL-28) of the same compound?
**A.** 0.00516 µM (active)

**Q.** And the GI50 (RPMI-8226)?
**A.** 0.0113 µM (active)

**Q.** And the GI50 (PC-3)?
**A.** 0.000206 µM (active)

**Q.** And the GI50 (HCT-116)?
**A.** 0.00169 µM (active)

**Q.** And the GI50 (SNB-75)?
**A.** 0.00346 µM (active)

**Q.** What about the GI50 (K562) of the same compound?
**A.** 0.00318 µM (active)

**Q.** What about the GI50 (HL-60) of the same compound?
**A.** 0.00387 µM (active)

**Q.** And the GI50 (HOP-92)?
**A.** 0.084 µM (active)

**Q.** What about the GI50 (SF-268) of the same compound?
**A.** 0.00436 µM (active)

**Q.** And the GI50 (T47D)?
**A.** 0.000196 µM (active)

**Q.** And the GI50 (OVCAR-8)?
**A.** 0.00405 µM (active)

**Q.** What about the GI50 (OVCAR-5) of the same compound?
**A.** 0.00577 µM (active)

**Q.** And the GI50 (NCI-H522)?
**A.** 0.0046 µM (active)

**Q.** What about the GI50 (HCT-15) of the same compound?
**A.** 0.00389 µM

**Q.** With `C[N+](C)(C)CC1Cc2ccccc2C1=O` (stereo not given) as the compound, how does the GI50 (M14) read?
**A.** 2.75 µM (inactive)

**Q.** And the GI50 (MDA-N)?
**A.** 3.72 µM (inactive)

**Q.** And the GI50 (MCF7)?
**A.** 2.07 µM (inactive)

**Q.** What about the GI50 (786-0) of the same compound?
**A.** 3.32 µM (inactive)

**Q.** And the GI50 (UACC-257)?
**A.** > 10 µM (inactive)

**Q.** What about the GI50 (SN12C) of the same compound?
**A.** > 7.45 µM (inactive)

**Q.** What about the GI50 (SK-MEL-28) of the same compound?
**A.** 5.58 µM (inactive)

**Q.** What about the GI50 (RPMI-8226) of the same compound?
**A.** 1.48 µM (inactive)

**Q.** And the GI50 (PC-3)?
**A.** > 10 µM (inactive)

**Q.** And the GI50 (HCT-116)?
**A.** 1.72 µM (inactive)

**Q.** And the GI50 (SNB-75)?
**A.** > 10 µM (inactive)

**Q.** And the GI50 (K562)?
**A.** 1.4 µM (inactive)

**Q.** And the GI50 (HL-60)?
**A.** 1.56 µM (inactive)

**Q.** And the GI50 (HOP-92)?
**A.** 3.91 µM (inactive)

**Q.** What about the GI50 (SF-268) of the same compound?
**A.** > 10 µM (inactive)

**Q.** What about the GI50 (T47D) of the same compound?
**A.** 2.51 µM (inactive)

**Q.** What about the GI50 (OVCAR-8) of the same compound?
**A.** 1.89 µM (inactive)

**Q.** And the GI50 (OVCAR-5)?
**A.** > 10 µM (inactive)

**Q.** What about the GI50 (NCI-H522) of the same compound?
**A.** 2.36 µM (inactive)

**Q.** And the GI50 (HCT-15)?
**A.** 4.53 µM

**Q.** For `CSc1ccc(/C=C/C(=O)c2nc3ccccc3[nH]2)cc1`, which GI50 (M14) is on record?
**A.** 15.9 µM (inactive)

**Q.** And the GI50 (MDA-N)?
**A.** 7.36 µM (inactive)

**Q.** And the GI50 (MCF7)?
**A.** 2.64 µM (inactive)

**Q.** What about the GI50 (786-0) of the same compound?
**A.** 12.7 µM (inactive)

**Q.** And the GI50 (UACC-257)?
**A.** 20.6 µM (inactive)

**Q.** What about the GI50 (SN12C) of the same compound?
**A.** 29.2 µM (inactive)

**Q.** What about the GI50 (SK-MEL-28) of the same compound?
**A.** 31.6 µM (inactive)

**Q.** What about the GI50 (RPMI-8226) of the same compound?
**A.** 3.02 µM (inactive)

**Q.** What about the GI50 (PC-3) of the same compound?
**A.** 12.3 µM (inactive)

**Q.** What about the GI50 (HCT-116) of the same compound?
**A.** 12.7 µM (inactive)

**Q.** And the GI50 (SNB-75)?
**A.** 13.2 µM (inactive)

**Q.** What about the GI50 (K562) of the same compound?
**A.** 4.41 µM (inactive)

**Q.** What about the GI50 (HL-60) of the same compound?
**A.** 12.1 µM (inactive)

**Q.** And the GI50 (HOP-92)?
**A.** 77.1 µM (inactive)

**Q.** And the GI50 (SF-268)?
**A.** 26.9 µM (inactive)

**Q.** What about the GI50 (T47D) of the same compound?
**A.** 3.95 µM (inactive)

**Q.** And the GI50 (OVCAR-8)?
**A.** 37.2 µM (inactive)

**Q.** What about the GI50 (OVCAR-5) of the same compound?
**A.** 25.2 µM (inactive)

**Q.** What about the GI50 (NCI-H522) of the same compound?
**A.** 12.2 µM (inactive)

**Q.** And the GI50 (HCT-15)?
**A.** 11.8 µM

**Q.** What does the source list for `OC1(c2ccc(Cl)cc2)c2ccccc2C2=Nc3ccccc3CN21` (stereo not given)?
**A.** GI50 (M14): > 100 µM (inactive); GI50 (MDA-N): > 70 µM (inactive); GI50 (MCF7): 21.9 µM (inactive); GI50 (786-0): 13.1 µM (inactive); GI50 (UACC-257): > 100 µM (inactive); GI50 (SN12C): 22.2 µM (inactive); GI50 (SK-MEL-28): 29 µM (inactive); GI50 (RPMI-8226): 33.4 µM (inactive); GI50 (PC-3): 45.8 µM (inactive); GI50 (HCT-116): 6.9 µM (inactive); GI50 (SNB-75): 17.8 µM (inactive); GI50 (K562): > 100 µM (inactive); GI50 (HL-60): 18.4 µM (inactive); GI50 (HOP-92): > 60.3 µM (inactive); GI50 (SF-268): 33.2 µM (inactive); GI50 (T47D): 45.5 µM (inactive); GI50 (OVCAR-8): 13.2 µM (inactive); GI50 (OVCAR-5): > 75.2 µM (inactive); GI50 (NCI-H522): 25.1 µM (inactive); GI50 (HCT-15): 30.8 µM

**Q.** With `Nc1ccc2c(c1)CN1C(=O)c3ccccc3C1=N2` [DANIQUIDONE] as the compound, how does the GI50 (M14) read?
**A.** 104 µM (inactive)

**Q.** And the GI50 (MDA-N)?
**A.** 49.4 µM (inactive)

**Q.** And the GI50 (MCF7)?
**A.** 39.5 µM (inactive)

**Q.** What about the GI50 (786-0) of the same compound?
**A.** 28.4 µM (inactive)

**Q.** And the GI50 (UACC-257)?
**A.** 96.6 µM (inactive)

**Q.** And the GI50 (SN12C)?
**A.** 33.3 µM (inactive)

**Q.** What about the GI50 (SK-MEL-28) of the same compound?
**A.** > 119 µM (inactive)

**Q.** And the GI50 (RPMI-8226)?
**A.** 74.6 µM (inactive)

**Q.** And the GI50 (PC-3)?
**A.** 58.1 µM (inactive)

**Q.** And the GI50 (HCT-116)?
**A.** 16.7 µM (inactive)

**Q.** And the GI50 (SNB-75)?
**A.** 30.2 µM (inactive)

**Q.** What about the GI50 (K562) of the same compound?
**A.** 67.5 µM (inactive)

**Q.** What about the GI50 (HL-60) of the same compound?
**A.** 8.3 µM (inactive)

**Q.** And the GI50 (HOP-92)?
**A.** 36.9 µM (inactive)

**Q.** What about the GI50 (SF-268) of the same compound?
**A.** 29 µM (inactive)

**Q.** What about the GI50 (T47D) of the same compound?
**A.** 52.5 µM (inactive)

**Q.** What about the GI50 (OVCAR-8) of the same compound?
**A.** 22 µM (inactive)

**Q.** And the GI50 (OVCAR-5)?
**A.** 64.9 µM (inactive)

**Q.** What about the GI50 (NCI-H522) of the same compound?
**A.** 45.3 µM (inactive)

**Q.** And the GI50 (HCT-15)?
**A.** 34.8 µM
